row,melting point,SMILES
1,189 to 191 °C,CCOc1cc2cc(C(=O)N3CC(CCl)c4c3cc(N3C(=O)c5ccccc5C3=O)c3ncccc43)[nH]c2c(OCC)c1OCC (stereo not given)
2,150 to 151 °C,Oc1cnc(-c2ccccc2)c(F)c1
3,84 to 86 °C,Cc1cc(SC(C)C)c(NC(=O)CCCCCSc2nc3ccccc3s2)c(SC(C)C)n1
4,55 to 60 °C,O=S(=O)(c1ccccc1)c1c[nH]c2ccc(CCO)cc12
5,327 to 329 °C,NC(=O)CCn1c2ccc(O)cc2c2c3c(c(-c4c(Cl)cccc4Cl)cc21)C(=O)NC3=O
6,184 °C,O=C1c2ccccc2-c2c1c1ccccc1c(=O)n2CCNCCO
7,209 to 214 °C,CC1CC(C)CN(Cc2ccc(NC(=O)C#Cc3ccc(-c4ccc(Cl)cc4)cc3)cc2)C1 (stereo not given)
8,150 to 152 °C,c1ccc(CN2CCC(Nc3ccc4[nH]ncc4c3)CC2)cc1
9,102 °C,Cc1ccc(C(C)(C)C)c(Oc2ccc(O)cc2)c1
10,132 to 136 °C,C[C@@H](n1cnc2cc(-c3ccc(Cl)cc3)sc2c1=O)[C@](O)(Cn1cncn1)c1ccc(Cl)cc1Cl
11,190 °C,COc1ccc(CN2C(=O)C(C)(c3cc(NC=O)ccc3Cl)c3cc(Cl)ccc32)c(OC)c1 (stereo not given)
12,350 to 351 °C,O=C(O)c1ccc2c(c1)C(=O)c1cccc(C(=O)O)c1S2(=O)=O
13,192 to 194 °C,CS(=O)(=O)c1ccc(-c2cnn(-c3ccc(F)c(F)c3)c(=O)c2Oc2ccc(Cl)cc2)cc1
14,103 to 105 °C,CC(C)(C)OC(=O)NOCC(=O)NNC(=O)c1cc(S(=O)(=O)O)cc(OCc2ccccc2)c1OCc1ccccc1
15,144 °C,CCOC(=O)c1cn2c(C)c(C)nc2c(NCc2c(C)cccc2CC)n1
16,130 to 132 °C,O=C1NCCc2c1c1cccc(F)c1n2COCc1ccccc1
17,59 to 61 °C,CC(C)(C)NC(=O)c1ncccc1CCc1ccc(F)cc1
18,224 to 225 °C,O=C(O)CCc1cccc(-c2nc(=O)c3ccc(Cl)cc3s2)n1
19,127 to 129 °C,CCOCCCOc1ccc(-c2ccc3c(c2)C=C(C(=O)OC)CCN3S(C)(=O)=O)cc1
20,83 to 87 °C,CC(C)(C)c1ccc(S(=O)(=O)N2c3ccccc3C[C@H]2C(=O)NCc2ccc(N)cc2)cc1

row,melting point,SMILES
1,142 to 151 °C,CCCN(CCC)c1nccc2ccc(C(=O)N[C@@H](Cc3cc(F)cc(F)c3)[C@H](O)CNCc3cccc(CC)c3)cc12
2,180 to 182 °C,CCOC(=O)c1c(Cn2cncn2)nc2sc3ncccc3c2c1-c1ccc(OC)c(OC)c1
3,112 to 115 °C,ClC[Si](c1ccccc1)(c1ccccc1)c1ccccc1
4,69 to 70 °C,O=C(O)C(=O)c1ccc(OCCCCCOc2ccccc2)cc1
5,134 to 135 °C,CSC(=Nc1c(C)nn(C)c1C)Nc1cc(Cl)ccc1C
6,208 to 211 °C,O=C(O)Cc1cccc2c(=O)cc(-c3cccc(F)c3)oc12
7,104 to 109 °C,CC(C)C(C)C(=O)NC(C)(Cc1c[nH]c2ccccc12)C(=O)NCCc1ccccc1 (stereo not given)
8,106 to 107 °C,O=C(O)COc1cccc(CCc2nc(-c3cccs3)c(-c3cccs3)o2)c1
9,130 to 132 °C,Cc1ccc(S(=O)(=O)N(C)c2ccc(Cl)cc2CO)cc1
10,177 to 179 °C,CC(C(=O)O)c1cccc(C(=O)c2ccccc2)c1[N+](=O)[O-] (stereo not given)
11,117 to 119 °C,CC(C(=O)N(C)C)n1ccc(-c2cccc([N+](=O)[O-])c2)n1 (stereo not given)
12,60 to 65 °C,CN(C)CCCNC(=O)c1ccccc1-c1nnc(CSCCOc2ccccc2)o1
13,> 400 °C,Cn1c2ccc(-c3nnn[nH]3)cc2c(=O)c2cc(-c3nnn[nH]3)ccc21
14,117 to 120 °C,Cc1nn(-c2ccccn2)c2nc3ccccc3c(OCC(C)C)c12
15,210 to 211 °C,COc1ccc(Cn2nc(-n3cnn(Cc4ccc(F)cc4)c3=O)cc2C(=O)NCc2cccnc2)cc1
16,261 °C,Cc1cc(-c2cc(C(F)F)n3ncc(C(=O)Nc4cccc(S(C)(=O)=O)c4)c3n2)ccc1C(F)(F)F
17,> 320 °C,O=C1c2[nH]c3cc(-c4ccccc4)nn3c(=O)c2CCN1C1CCCCC1
18,68 to 71 °C,COc1ccc(Nc2ccn(Cc3ccccc3)n2)cc1
19,154 to 157 °C,COc1cc2c(cc1OC)[C@@H]1c3ccc(C)cc3C(=O)N(Cc3ccccc3)[C@H]1CC2 (relative stereo)
20,185 to 187 °C,OC[C@H](O)CN1CCC[C@@H](Nc2nccc(-c3c(-c4cccc(O)c4)nc4sccn34)n2)C1

row,melting point,SMILES
1,176 °C,O=C1C(=C2C=Cc3ccccc3C2)CCCC1=C1C=Cc2ccccc2C1
2,44 to 45 °C,CCC1C(=O)Oc2c(Oc3ccccc3C)cccc21 (stereo not given)
3,189 to 190 °C,COC(=O)c1ccc(-c2nc(-c3ccc(Cl)s3)co2)cc1
4,54 to 55 °C,CC(C)n1cc(-c2ccc(F)cc2)nn1
5,228 to 229 °C,COC(=O)c1cccc(C(=O)NC(Nc2c(Nc3cccnc3)c(=O)c2=O)C(C)(C)C)c1 (stereo not given)
6,199 to 200 °C,Cn1cc(-c2cc3cccnc3[nH]2)c2cc(O)ccc21
7,130 °C,O=C(c1ccc(-c2ccc(Cl)cc2)o1)N1CCN(c2cccc(Br)c2)CC1
8,42 to 43 °C,CCN(C(=O)n1nnc2cc(C)ccc21)c1ccccc1
9,92 to 116 °C,Cn1nc2c(-c3ccc(Cl)cc3Cl)cccc2c1CCc1ncn[nH]1
10,154 to 156 °C,Fc1ccc(NC(=S)c2ccccn2)cc1Cn1ccnc1
11,203 °C,CC(C)(N)c1ccc(-c2nc(Nc3ccc(F)cc3F)ncc2C#N)cc1
12,194 to 195 °C,CC1(C)c2ccc([N+](=O)[O-])cc2C(NC(=O)Nc2ccccc2)C1O (stereo not given)
13,170 to 172 °C,CCc1nn2c(-c3cccnc3)ccnc2c1C#N
14,63 to 64 °C,O=C(c1ccc2ncsc2c1)N1CCC[C@H](c2nc(-c3ccc(F)cc3)no2)C1
15,70 to 72 °C,COCOc1ccc(CCCOc2c(CC(=O)O)cccc2OC)c(Oc2ccc(C(F)(F)F)cn2)c1
16,176 to 181 °C,CN1CCN(CCCNc2ncc3cc(-c4c(Cl)cccc4Cl)c(NC(=O)Nc4ccc(Cl)cc4)nc3n2)CC1
17,80 to 82 °C,CSc1ccc(-c2cccc(-c3nc(C(C)C)[nH]c3-c3cccc(C)n3)c2)cc1
18,114 to 115 °C,O=C(NO)c1ccc(OC(=O)C2(c3ccc(OC(=O)c4ccccc4)cc3)CCCCC2)cc1

# The next lines start with the compound.
row,SMILES,melting point
1,Cc1nc(-c2c(Cl)cc(C(F)(F)F)cc2Cl)[nH]c1S(N)(=O)=O,266 to 267 °C
2,O=C(O)CCc1ccc(C=CC(=O)c2ccccc2)cc1,159 to 160 °C
3,COC(=O)Cn1ccnc1Cc1ccccc1,70.8 °C
4,CC(C)(C)c1cc(SC(=S)NN)cc(C(C)(C)C)c1O,146 °C
5,C/C(=C(\C#N)C(N)=S)N1CCCSCC1,138 to 142 °C
6,CCOC(=O)C1CCN(C(=O)c2ccc(/C=C/C(=O)O)cc2)CC1,165 °C
7,CCOC(=O)c1cnc2c(cnn2Cc2ccco2)c1O,103 to 106 °C
8,Oc1cc(C(F)(F)F)[nH]n1,211 to 215 °C
9,CC1CN(S(=O)(=O)c2cc(C#N)ccc2Sc2cc(Cl)ccc2Cl)CC(C)N1 (stereo not given),160 to 190 °C
10,CC(=O)n1nc(CBr)c(Oc2cc(Cl)cc(C#N)c2)c1C,122 to 123 °C
11,CC(NCC(O)CP(=O)(O)CC1CCCCC1)c1ccc(Cl)c(Cl)c1 (stereo not given),173 to 178 °C
12,COC(=O)[C@H](CO)NC(=O)c1ncn2c1CN(C)C(=O)c1c(Cl)cccc1-2,178 to 180 °C
13,CC(=O)NC12CC1CN(c1nc3c(cc1F)c(=O)c(C(=O)O)cn3C1CC1)C2 (stereo not given),275 °C
14,CCCC12CCC(=O)C=C1c1c(cc(CC(=O)O)c(Cl)c1Cl)C2 (stereo not given),206 to 208 °C
15,CCCc1cc2c(cc1C(=O)c1ccc(C(O)=NO)cc1)C(C)(C)CCC2(C)C,255 to 257 °C
16,COc1cn(C(C)=O)c2ccc(F)c(Cl)c12,114 to 115 °C
17,BrCc1ccc(-c2ccc(CBr)cn2)nc1,188 °C
18,Cc1cc(S(C)(=O)=O)c(S(C)(=O)=O)cc1C(=O)O,234 to 235 °C
19,Cc1nc(C(=O)NCCO[N+](=O)[O-])cs1,78 to 79 °C
20,CS(=O)(=O)Cc1cnc2ccsc2c1O,> 300 °C
21,CCCNS(=O)(=O)c1nc2ccc(OCC)cc2s1,112 to 113 °C

row,SMILES,melting point
1,CC(=O)OC1CCC2(C)C(=CCC3C2CCC2(C)C(C(C)=O)CCC32F)C1 (stereo not given),128 °C
2,CNC(=NC#N)NCCCCCc1csc(NC(=N)N)n1,109 to 113 °C
3,CCOC(=O)C1=C(N)NC(C)=CC1c1ccccc1 (stereo not given),150 °C
4,CC1(C)c2ccccc2C(C)(C)N1O,128 to 130 °C
5,FC(F)(F)c1cccc(N2CCN(c3ccc(Cl)nn3)CC2)c1,149 °C
6,C=CCCC(C#N)(C#N)Cc1ccc(OC(C)=O)cc1,80.2 °C
7,O=c1ccn(CCO)c(C(O)c2ccccc2F)c1O (stereo not given),177 to 178 °C
8,O=C(Cc1ccccc1)c1ccc(OCCN2CCCC2)cc1,77 to 78 °C
9,COC1COC(c2ccccc2)OC1 (stereo not given),51 °C
10,N[C@@H](CC(C(=O)O)=C1CCCC1)C(=O)O,205 °C
11,CC(=O)c1ccc(=O)[nH]c1C=CN(C)C,238 to 240 °C
12,Clc1cccc(Nc2nc(OCC3CCCCC3)c3[nH]cnc3n2)c1,196 to 199 °C
13,NC(=O)N1C(=O)C(C(=O)c2cc(Cl)cs2)c2nc(Cl)ccc21 (stereo not given),> 250 °C
14,CC(=O)c1cc2c(s1)S(=O)CCN(CCCCN1CCN(c3ncccn3)CC1)C2=O (stereo not given),103 to 106 °C
15,CCCCCS(=O)(=O)NC(=O)CCc1ccc(OCCOC)cc1OCC1CCCCC1,81 to 82 °C
16,CCCN1CCN(c2ccc(C(C)=O)cc2)CC1,68 to 70 °C
17,O=S(c1ccc(-n2cnnn2)cc1)C(F)F (stereo not given),109 to 112 °C
18,O=C(O)Cc1cc(Br)c2c(c1)CCC(C(F)(F)F)N2 (stereo not given),111 to 112 °C
19,CN(C(=O)c1ccc2cnccc2n1)C1CCCCC1,62 to 63 °C
20,COC1=C(c2cccc(C(F)(F)F)c2)C(CCC(=O)O)OC1=O (stereo not given),132 °C
21,O=C(Nc1cccc(Cl)c1)ONC1=Nc2ccc([N+](=O)[O-])cc2C(c2ccccc2Cl)=NC1,130 to 135 °C
